Earlier results, collected in PMC12658903 (RSC Medicinal Chemistry, 2025).

How the values were obtained:
furin = details: read-out: IC50 furin; cited from earlier work
HAT = details: read-out: IC50 (μM) HAT; cited from earlier work
TMPRSS2 = details: read-out: IC50 (μM) TMPRSS2; cited from earlier work

| SMILES | IC50 (furin) [µM] | IC50 (HAT) [µM] | IC50 (TMPRSS2) [µM] |
| --- | --- | --- | --- |
| N=C(N)c1ccc(/N=N/Nc2ccc(C(=N)N)cc2)cc1 [diminazen] | 13.2 |  |  |
| CN(C)C(=O)COC(=O)Cc1ccc(OC(=O)c2ccc(NC(=N)N)cc2)cc1 [Camostat, camostat] |  | 0.151 | […] |
